# Results from the supplement of paper PMC10307832.
# What was measured:
# Test in all cases: relative viability (nuclei count vs DMSO), 5 days (fraction); higher = more cells survive
# Vismodegib + Vorinostat = compound: CS(=O)(=O)c1ccc(C(=O)Nc2ccc(Cl)c(-c3ccccn3)c2)c(Cl)c1 [Vismodegib] + O=C(CCCCCCC(=O)Nc1ccccc1)NO [Vorinostat] (partner 1 µM)
# Outline: (§1)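 One day after seeding in 1536-well plates, lung cancer cell lines were dosed by pin tool. Dosing was either single-drug or a fixed anchor-drug dose plus five library-drug doses (not always all listed) in √10 steps. After 5 days, nuclei were stained in one fix-and-stain step and counted on 4× images, and relative viability is the nuclei count of treated wells over that of vehicle wells, given as the median of duplicate plates.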
# VE-821 + Luminespib = compound: CS(=O)(=O)c1ccc(-c2cnc(N)c(C(=O)Nc3ccccc3)n2)cc1 [VE-821] + CCNC(=O)c1noc(-c2cc(C(C)C)c(O)cc2O)c1-c1ccc(CN2CCOCC2)cc1 [Luminespib] (partner 0.01 µM)
# Outline: as §1
# Vismodegib + Decitabine = compound: CS(=O)(=O)c1ccc(C(=O)Nc2ccc(Cl)c(-c3ccccn3)c2)c(Cl)c1 [Vismodegib] + Nc1ncn([C@H]2C[C@H](O)[C@@H](CO)O2)c(=O)n1 [Decitabine] (partner 2 µM)
# Outline: as §1
# Ruxolitinib + Bortezomib = compound: N#CC[C@H](C1CCCC1)n1cc(-c2ncnc3[nH]ccc23)cn1 [Ruxolitinib] + CC(C)C[C@H](NC(=O)[C@H](Cc1ccccc1)NC(=O)c1cnccn1)B(O)O [Bortezomib] (partner 0.002 µM)
# Outline: as §1
Cell Line,relative viability (Vismodegib + Vorinostat; first compound 0.08 µM),relative viability (Vismodegib + Vorinostat; first compound 0.253 µM),relative viability (Vismodegib + Vorinostat; first compound 0.8 µM),relative viability (Vismodegib + Vorinostat; first compound 2.53 µM),relative viability (Vismodegib + Vorinostat; first compound 8 µM),relative viability (VE-821 + Luminespib; first compound 0.08 µM),relative viability (VE-821 + Luminespib; first compound 0.253 µM),relative viability (VE-821 + Luminespib; first compound 0.8 µM),relative viability (VE-821 + Luminespib; first compound 2.53 µM),relative viability (VE-821 + Luminespib; first compound 8 µM),relative viability (Vismodegib + Decitabine; first compound 0.08 µM),relative viability (Vismodegib + Decitabine; first compound 0.253 µM),relative viability (Vismodegib + Decitabine; first compound 0.8 µM),relative viability (Vismodegib + Decitabine; first compound 2.53 µM),relative viability (Vismodegib + Decitabine; first compound 8 µM),relative viability (Ruxolitinib + Bortezomib; first compound 0.08 µM),relative viability (Ruxolitinib + Bortezomib; first compound 0.253 µM),relative viability (Ruxolitinib + Bortezomib; first compound 0.8 µM),relative viability (Ruxolitinib + Bortezomib; first compound 2.53 µM),relative viability (Ruxolitinib + Bortezomib; first compound 8 µM)
201T,0.956,0.952,0.973,0.977,0.924,1.06,1.03,1.06,1.06,0.934,0.826,0.813,0.869,0.848,0.846,1.14,1.26,1.21,1.34,1.3
A549,–,–,–,–,–,–,–,–,–,–,0.268,0.228,–,0.263,0.205,–,–,–,–,–
A-427,0.923,0.862,0.814,0.872,0.84,1.08,1,0.69,0.745,0.3,0.515,0.569,0.546,0.499,0.582,0.983,0.955,0.985,1.06,0.782
ABC-1,1.55,0.987,0.873,1.23,1.24,0.614,0.401,0.469,0.49,0.328,1.06,1.01,0.999,1.2,1.01,0.324,0.303,0.325,0.284,0.285
BEN,0.581,0.527,0.578,0.531,0.528,0.414,0.374,0.376,0.344,0.322,0.684,0.691,0.648,0.697,0.782,0.634,0.693,0.824,0.747,1.16
CAL-12T,0.894,0.699,0.787,0.705,0.799,0.655,0.363,0.4,0.327,0.137,–,–,–,–,–,–,0.856,1.1,0.979,0.535
COR-L23,0.408,0.478,0.388,0.384,0.451,0.835,0.651,0.633,0.342,0.446,0.413,0.429,0.505,0.441,0.41,1.16,1.03,1.06,0.9,0.758
COR-L 105,0.94,0.803,0.829,0.826,0.71,0.692,0.771,0.51,0.632,0.524,0.589,0.593,0.676,0.708,0.627,0.925,0.949,0.826,0.536,0.647
Calu-6,–,–,–,–,–,–,–,–,–,–,–,–,–,–,–,1.02,0.93,1.18,0.921,0.557
ChaGo-K-1,0.761,0.739,0.799,0.754,0.708,0.537,0.481,0.445,0.582,0.312,0.503,0.508,0.504,0.505,0.561,–,0.929,0.94,0.976,0.701
EBC-1,–,–,–,–,–,–,–,–,–,–,–,–,–,–,–,0.592,0.49,0.597,0.42,0.361
EKVX,0.77,0.752,0.802,0.907,0.655,0.96,0.77,0.763,0.939,0.815,–,0.383,0.327,0.297,0.336,0.785,0.994,0.986,0.989,0.929
EMC-BAC-2,0.515,0.302,0.418,0.476,0.422,1.36,1.15,1.09,1.11,0.931,1,0.926,0.964,0.9,1.04,1.12,1.06,1.15,1.06,0.811
EPLC-272H,0.398,0.368,0.49,0.329,0.509,0.265,0.301,0.179,0.288,0.221,0.375,0.358,0.358,0.362,0.341,0.846,0.976,0.984,0.937,0.734
H3255,0.488,0.747,0.915,0.835,0.782,0.903,0.782,0.78,0.915,0.973,0.569,0.567,0.578,0.604,0.562,–,0.595,0.836,0.6,0.598
HARA,0.501,0.546,0.521,0.495,0.453,0.956,0.836,0.579,0.695,0.448,0.553,–,0.514,0.509,0.55,1.29,1.06,1.11,0.534,1.09
HCC-15,0.844,0.774,0.86,0.781,0.859,0.37,0.175,0.517,0.422,0.315,0.635,0.659,0.687,0.668,0.576,1.08,1.05,1.01,0.99,0.926
HCC-44,1.21,1.02,1.1,1.08,1.11,1.34,0.97,0.908,1.14,0.807,0.945,0.942,0.93,0.937,1.04,0.888,0.944,0.914,0.933,0.689
HCC-78,0.425,0.403,0.453,0.492,0.42,–,–,–,–,–,0.561,0.736,0.661,0.698,0.786,0.379,0.365,0.441,0.354,0.391
